Laboratory results as given in patent US12410163B2, “Compounds as GLP-IR agonists” (Terns Pharmaceuticals, Inc., priority 2022, dated 2025).

Tests used:
human GLP-1R receptor = biological target: T1, human GLP-1R receptor (Homo sapiens, UniProt P43220); assay: GLP-1R low expression cell assay (cAMP TR-FRET, CHO-K1_hGLP-1Rlow_clone10); format: cell-based; details: CHO-K1_hGLP-1Rlow_clone10 cells, percent activation relative to control GLP-1 peptide
T1 construct: expressed in transfected cells
Protocol: Stable cell lines expressing high and low GLP-1R surface expression are generated in CHO-K1 cells transfected (Fugene 6) with a puromycin selectable DNA plasmid encoding human GLP-1R receptor (accession number: NM_002062.5) under control of an EF1A promoter. Transfected cells are seeded into 24-well plates (9,000 cells/well) containing complete medium and incubated in a humidified incubator at 37° C. with 5% carbon dioxide. After overnight incubation, medium is replaced with complete medium supplemented with puromycin (6 μg/mL) and refreshed every 2-3 days to select for stably transfected cells. Individual pools of selected cells are expanded prior to analysis for responsiveness to GLP-1 control peptide using a TR-FRET assay to detect cAMP (LANCE Ultra cAMP Assay, Perkin Elmer). Briefly, cells are collected in Versene solution, plated in 384-well plates (1,000 cells/well) and combined with serially diluted GLP-1R control peptide (10 nL) using an acoustic dispenser (ECHO). Plates are incubated for 30 minutes at 25° C. prior to the addition of EU-cAMP tracer (5 μL) and Ulight-anti-cAMP (5 μL) reagents to each well, followed by 15 minutes incubation at 25° C. TR-FRET signal is detected using an EnVision Multimode Plate Reader (excitation=320 nm; emission=615 and 655 nm). Dose-response curves are used to generate EC50 values as a measure of responsiveness to the GLP-1R control peptide. Selected cell lines are monitored for responsiveness over multiple passages to ensure stability. […] Briefly, GLP-1R expression is analyzed by flow cytometry using a fluorescein-labeled Exendin-4 peptide fluorescent probe (FLEX). Cells are harvested in Versene solution and washed 3-times with PBS+0.5% BSA before incubation with FLEX reagent (10 μM) for 2 hours at room temperature. After incubation, cells are washed 3-times in PBS+0.5% BSA before final resuspension in PBS prior to analysis by flow cytometry to measure FLEX mean fluorescence intensity (MFI) as a measure of GLP-1R expression on the cell surface.
For compound testing in the CHO-K1_hGLP-1Rlow_clone10 cell lines, cells are seeded in 384-well plates (1,000 cells/well). Test compounds are serially diluted in DMSO (10-point, 3-fold dilution), added to wells using an ECHO dispenser (10 nL/well) and plates are centrifuged for 1 min and agitated for 2 min at room temperature prior to 30-minute incubation at 25° C. After incubation, Eu-cAMP (5 μL) and Ulight-anti-cAMP (5 μL) reagents are added to each well, followed by centrifugation for 1 minute, agitation for 2 minutes at room temperature, and final incubation of the plates at 25° C. for 15 minutes. Plates are read using an EnVision microplate reader (excitation=320 nm; emission=615 and 655 nm). Dose-response curves are generated from duplicate wells based on percent activation calculated relative to a control GLP-1 peptide agonist that was run in parallel. EC50 values are determined by fitting percent activation as a function of compound concentration using the Hill equation (XLfit).
Stable cell lines expressing high and low GLP-1R surface expression were generated in CHO-K1 cells transfected (Fugene 6) with a puromycin selectable DNA plasmid encoding human GLP-1R receptor (accession number: NM_002062.5) under control of an EF1A promoter. Transfected cells were seeded into 24-well plates (9,000 cells/well) containing complete medium and incubated in a humidified incubator at 37° C. with 5% carbon dioxide. After overnight incubation, medium was replaced with complete medium supplemented with puromycin (6 μg/mL) and refreshed every 2-3 days to select for stably transfected cells. Individual pools of selected cells were expanded prior to analysis for responsiveness to GLP-1 control peptide using a TR-FRET assay to detect cAMP (LANCE Ultra cAMP Assay, Perkin Elmer).

Rat pharmacokinetics [1] = format: in vivo; design: AUC: concentration or dose not given beside the values; details: male Sprague-Dawley rats, plasma, route not given; for half-life: read-out: Rat T1/2 (converted)
Protocol: Intravenous dosing: Compounds were formulated at 0.5 mg/mL in a solution comprising 5% polyethylene glycol 400 and 95% (12% (w/v) sulfobutyl-β-cyclodextrin in water) (v/v). Formulated compounds were sterile filtered through a 0.22 micron filter before dosing. Compounds were administered to male, 7-11-week-old Sprague-Dawley rats by jugular vein cannula infusion over 30 minutes at a dose of 1 mg/kg. […]
Sample collection: Blood collections of about 0.2 mL per time point were performed from jugular vein or other suitable site of each animal, into pre-chilled commercial EDTA-K2 tubes and placed on wet ice until centrifugation. Blood samples were processed for plasma by centrifugation at approximately 4° C., 3,200 g for 10 min. Plasma was collected and transferred into pre-labeled 96 well plate or polypropylene tubes, quick frozen over dry ice and kept at −60° C. or lower until LC-MS/MS analysis.
Data analysis: Plasma concentration versus time data was plotted in graph and analyzed by non-compartmental approaches using the Phoenix WinNonlin 6.3 software program. Related PK parameters were calculated according to dosing route, e.g., CL, Vdss and C0 for intravenous administration, Cmax, Tmax or % F for extravascular administration, and T1/2, AUC(0-t), AUC(0-inf), MRT(0-t), MRT(0-inf) for all routes.

Rat pharmacokinetics [2] = format: in vivo; details: male Sprague-Dawley rats, plasma, route not stated in table (IV or oral gavage 10 mL/kg of 0.3 or 0.6 mg/mL)
[3] = Passive permeability and efflux ratio (Caco-2); format: in vitro ADME; details: human
Protocol: Caco-2 cells (clone C2BBe1) are obtained, e.g., from American Type Culture Collection (Manassas, VA). Cell monolayers are grown to confluence on collagen-coated, microporous membranes in 12-well assay plates. The permeability assay buffer is Hanks' balanced salt solution containing 10 mM HEPES and 15 mM glucose at a pH of 7.4. The buffer in the receiver chamber also contains 1% bovine serum albumin. The dosing solution concentration is 5 μM of test article in the assay buffer. Cell monolayers are dosed on the apical side (A-to-B) or basolateral side (B-to-A) and incubated at 37° C. with 5% CO2 in a humidified incubator. Samples are taken from the donor and receiver chambers at 120 minutes. Each determination is performed in duplicate. The flux of lucifer yellow is also measured post-experimentally for each monolayer to ensure no damage is inflicted to the cell monolayers during the flux period. All samples are assayed by LC-MS/MS using electrospray ionization. The apparent permeability (Papp) and percent recovery were calculated as follows: Papp=(dCr/dt)×Vr/(A×CA) (1) Percent Recovery=100×((Vr×Cr^final)+(Vd×Cd^final))/(Vd×CN) (2), where, dCr/dt is the slope of the cumulative receiver concentration versus time in μM s^−1; Vr is the volume of the receiver compartment in cm^3; Vd is the volume of the donor compartment in cm^3; A is the area of the insert (1.13 cm^2 for 12-well); CA is the average of the nominal dosing concentration and the measured 120-minute donor concentration in μM; CN is the nominal concentration of the dosing solution in μM; Cr^final is the cumulative receiver concentration in μM at the end of the incubation period; Cd^final is the concentration of the donor in μM at the end of the incubation period. Efflux ratio (ER) is defined as Papp (B-to-A)/Papp (A-to-B). Rat Pharmacokinetics
Caco-2 cells (clone C2BBe1) were obtained from American Type Culture Collection (Manassas, VA). Cell monolayers were grown to confluence on collagen-coated, microporous membranes in 12-well assay plates. Details of the plates and their certification are shown below. The permeability assay buffer was Hanks' balanced salt solution containing 10 mM HEPES and 15 mM glucose at a pH of 7.4. The buffer in the receiver chamber also contained 1% bovine serum albumin. The dosing solution concentration was 5 μM of test article in the assay buffer. Cell monolayers were dosed on the apical side (A-to-B) or basolateral side (B-to-A) and incubated at 37° C. with 5% CO2 in a humidified incubator. Samples were taken from the donor and receiver chambers at 120 minutes. Each determination was performed in duplicate. The flux of lucifer yellow was also measured post-experimentally for each monolayer to ensure no damage was inflicted to the cell monolayers during the flux period. All samples were assayed by LC-MS/MS using electrospray ionization. The apparent permeability (Papp) and percent recovery were calculated as follows: Papp=(dCr/dt)×Vr/(A×CA) (1) Percent Recovery=100×((Vr×Cr^final)+(Vd×Cd^final))/(Vd×CN) (2), where, dCr/dt is the slope of the cumulative receiver concentration versus time in μM s^−1; Vr is the volume of the receiver compartment in cm^3; Vd is the volume of the donor compartment in cm^3; A is the area of the insert (1.13 cm^2 for 12-well); CA is the average of the nominal dosing concentration and the measured 120-minute donor concentration in μM; CN is the nominal concentration of the dosing solution in μM; Cr^final is the cumulative receiver concentration in μM at the end of the incubation period; Cd^final is the concentration of the donor in μM at the end of the incubation period. Efflux ratio (ER) is defined as Papp (B-to-A)/Papp (A-to-B).

T1 sequence (P43220 24-463): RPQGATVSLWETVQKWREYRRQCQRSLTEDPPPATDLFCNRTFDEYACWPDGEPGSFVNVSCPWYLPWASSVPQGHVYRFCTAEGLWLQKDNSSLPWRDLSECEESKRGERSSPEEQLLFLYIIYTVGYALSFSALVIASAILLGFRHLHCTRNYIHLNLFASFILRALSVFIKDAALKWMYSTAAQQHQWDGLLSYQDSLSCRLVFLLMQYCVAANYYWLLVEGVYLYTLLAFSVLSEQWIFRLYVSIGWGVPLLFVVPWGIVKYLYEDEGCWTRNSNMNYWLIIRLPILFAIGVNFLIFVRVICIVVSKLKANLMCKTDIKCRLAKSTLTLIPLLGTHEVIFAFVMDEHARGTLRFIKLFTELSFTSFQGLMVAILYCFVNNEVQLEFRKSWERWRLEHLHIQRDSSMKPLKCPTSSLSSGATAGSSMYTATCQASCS

Row | EC50 (human GLP-1R receptor) | AUC (Rat pharmacokinetics [1]) | half-life (Rat pharmacokinetics [1]) | Cmax (Rat pharmacokinetics [2]) | efflux ratio at 120 min, 5 μM ([3]; pH 7.4, Caco-2, efflux ratio = Papp (B-to-A)/Papp (A-to-B), read-out: ER) | Papp A→B at 120 min, 5 μM ([3]; Caco-2, 5 μM, pH 7.4, 120 minutes) | Structure (SMILES)
1 | 5 to 50 nM | 0.0207 ± 0.0126 µg·h/mL | 1.8 h | 0.0193 ± 0.0027 µg/mL |  |  | C[C@]1(c2ccc(C#N)cc2F)Oc2cccc(N3CCN(Cc4nc5ccc(C(=O)O)cc5n4Cc4cncs4)[C@H]4C[C@H]43)c2O1 [Compound 36, 2-((5-(2-(4-Cyano-2-fluorophenyl)-2-methylbenzo[d][1,3]dioxol-4-yl)-2,5-diazabicyclo[4.1.0]heptan-2-yl)methyl)-1-(thiazol-5-ylmethyl)-1H-benzo[d]imidazole-6-carboxylic Acid]
2 | < 5 nM | 0.0158 ± 0.0076 µg·h/mL |  | 0.02 ± 0.0077 µg/mL |  |  | C[C@@]1(c2ccc(C#N)cc2F)Oc2cccc(N3CCN(Cc4nc5ccc(C(=O)O)cc5n4Cc4cncs4)[C@@H]4C[C@@H]43)c2O1 [Compound 37, 2-((5-(2-(4-Cyano-2-fluorophenyl)-2-methylbenzo[d][1,3]dioxol-4-yl)-2,5-diazabicyclo[4.1.0]heptan-2-yl)methyl)-1-(thiazol-5-ylmethyl)-1H-benzo[d]imidazole-6-carboxylic Acid]
3 | < 5 nM |  |  |  | 1.82 | 199 nm/s | CC1(c2ccc(C#N)cc2F)Oc2cccc(N3CCN(Cc4nc5ccc(C(=O)O)cc5n4Cc4cncs4)C4CC43)c2O1 (centres unmarked) [Compound 34, 2-((5-(2-(4-Cyano-2-fluorophenyl)-2-methylbenzo[d][1,3]dioxol-4-yl)-2,5-diazabicyclo[4.1.0]heptan-2-yl)methyl)-1-(thiazol-5-ylmethyl)-1H-benzo[d]imidazole-6-carboxylic Acid]
4 | > 100 nM | 0.109 ± 0.0215 µg·h/mL | 1.6 h | 0.0583 ± 0.00974 µg/mL |  |  | C[C@]1(c2ccc(C#N)cc2F)Oc2cccc(N3CCN(Cc4nc5ccc(C(=O)O)cc5n4Cc4cncs4)[C@@H]4C[C@@H]43)c2O1 [Compound 38, 2-((5-(2-(4-Cyano-2-fluorophenyl)-2-methylbenzo[d][1,3]dioxol-4-yl)-2,5-diazabicyclo[4.1.0]heptan-2-yl)methyl)-1-(thiazol-5-ylmethyl)-1H-benzo[d]imidazole-6-carboxylic Acid]
